Reference: patent US20240307388A1, “FORMULATIONS FOR SUBSTITUTED 3-PYRROLIDINES, COMPOSITIONS CONTAINING, AND USES OF SAME” (LIPIDIO PHARMACEUTICALS, INC., priority 2016, published 2024)

What was measured:
[1] = Cytotoxicity in mouse melanoma cells (CellTiter-Glo); type: cell-based; conditions: mouse, B16F10 mouse melanoma cells; B16F10, 48 h, representative experiment
Description: (§1) Mouse melanoma cells (B16F10) (American Type Culture Collection (ATCC), Manassas, VA) were cultured in Dulbecco's minimal essential media (DMEM) containing 10% fetal bovine serum, (Thermofisher, Waltham, MA). Cells were plated at a density of 5,000 cells per well into a 96-well plate and allowed to attach for 24 h in a 37° C. humidified incubator with a 5% CO2 atmosphere. Media was replaced with that containing test agents or vehicle (0.1% dimethylsulphoxide) and cells incubated for a further 48 h. Cell viability was assessed using CellTiter-Glo® (Promega).
(§2) An oleate-bovine serum albumin (BSA) conjugate was prepared by dissolving sodium oleate to 100 mM in methanol. The oleate was diluted to 20 mM with PBS and further diluted 1:1 with 30% fatty acid free albumin and incubated overnight at 37° C. The solution was sterile filtered prior to treating cells. The BSA control was prepared in the same manner, without the fatty acid. […] Non-linear regression analysis was performed using GraphPad PRISM®.

[2] = test system: Mouse melanoma cells (B16F10); experiment: as above; type: cell-based; conditions: for effect of oleic acid on cytotoxicity: B16F10, oleic acid at 25 μM in the media
Description: as §1, §2

[3] = test system: Human subcutaneous pre-adipocytes; experiment: Lipid accumulation in differentiating primary human adipocytes (AdipoRed); type: cell-based; conditions: Adipocyte, 144 h, six days, read-out: IC50, reduction in lipid accumulation
Description: Human subcutaneous pre-adipocytes (Zenbio (RTP, NC, U.S.A.)) were received pre-plated in white-walled 96-well plates. A schematic description of the protocol used for examining the effects of Compound A on lipid accumulation in differentiating human adipocytes is shown in FIG. 9. Upon arrival of cells (Day 1) 150 μL media in the wells was replaced with adipocyte differentiation media (Zenbio (RTP, NC, U.S.A.)). The following day media was replaced as described for Day 1. Media was subsequently replaced as described every two to three days. On Day 6, 150 μL of the adipocyte differentiation media was replaced with vehicle (0.1% DMSO), or the SCD1 inhibitors at the concentrations indicated. […] Cytotoxicity following incubation of adipocytes with Compound A was determined in separate wells, not used for Adipored™ staining, and was measured using CellTiter-Glo® (Promega (Madison, WI)) according to the manufacturer's instructions. Following a 10 min room temperature incubation the luminescence measured as relative light units (RLU) was determined in a luminescent plate reader. For adipocytes treated with concentrations of 1.2-100 nM Compound A for 6 days, cell viability as determined by RLU following CellTiter-Glo® remained greater than 75% of the value obtained with vehicle-treated adipocytes. […]

[4] = test system: mouse 3T3 L1 preadipocytes; experiment: Viability of mouse 3T3 L1 preadipocytes (Cell Titer Blue); type: cell-based; conditions: 10 μM
Description: Viability of mouse 3T3 L1 preadipocytes (ATCC, Mannassas, VA) cultured in a 96-well plate following treatment with 10 μM Compound A and analogs Compounds B, D, E, G and H was assessed using Cell Titer Blue (Promega (Madison, WI)) according to manufacturer's instructions. […] To evaluate how the efficacy of Compound A in reducing lipid accumulation altered with substrate availability, studies were performed in differentiating mouse 3T3-L1 pre-adipocytes using charcoal stripped serum to reduce substrate concentration and also with added exogenous palmitate as the substrate. 3T3-L1 cells were plated at 6000 cells/cm^2 and cultured until confluence at 37° C. in a humidified incubator in 95% air/5% CO2. Two days post-confluence pre-adipocyte differentiation was initiated using adipocyte differentiation medium containing DMEM with high glucose, 10% fetal bovine serum, insulin (1.7 μM), dexamethasone (1 μM), IBMX (0.5 mM), PPARy agonist Rosiglitazone, (1 μM) with penicillin and streptomycin with 10 nM compound A or vehicle (0.1% DMSO). Seventy two hours following the initiation of differentiation, media was replaced with adipocyte maintenance media containing DMEM with high glucose and insulin (1.7 μM) with 10 nM compound A or vehicle (0.1% DMSO) (FIG. 12). Serum composed of 100% FCS or that containing 20, 40, 60, 80 or 100% charcoal stripped serum (cFCS). For experiments where sodium palmitate was added the serum comprised of a 90:10 ratio of FCS:cFCS with 5.0 or 50 μM palmitate/bovine-serum albumin (BSA) complex. Sodium palmitate was conjugated to BSA for use in experiments and was prepared by dissolving to 100 mM in 200 proof ethanol. The palmitate was diluted to 20 mM with D-PBS. The palmitate was then further diluted 1:1 with 30% fatty acid free albumin and incubated overnight at 37° C. The solution was sterile filtered with a 0.22 micron syringe filter prior to treating cells. The BSA control was prepared in the same manner, without the fatty acid. For the studies in which palmitate was added the media additionally contained palmitate/BSA complex at the same concentration as that used during the differentiation stage. Following a further forty-eight hours or ninety-six hours of incubation (Day 6 or Day 8 respectively) the media was removed, wells rinsed with PBS, and 200 μL PBS was added. Five microliters of AdipoRed™ reagent was added to each well, mixed, and allowed to stand at room temperature for 10 mins. Triglyceride was quantitated in a fluorimeter (i3 SpectraMax, Molecular Devices) using ? ex 530 nm and ? em 590 nm to determine relative fluorescent units (RFU). Percent inhibition of triglyceride accumulation in Compound A treated 3T3-L1 adipocytes compared to those treated with vehicle under each condition was calculated by using the formula; % Triglyceride Compound A treated adipocytes=100*(RFU Compound A treated adipocytes/RFU vehicle treated adipocytes).

[5] = Analog solubility in TSAG3 gel vehicle (minus Carbopol); type: physicochemical; conditions: for Supernatant concentration Mean (N = 2-3) mg/g at RT after 4 days equilibration / Visual observation of sample after 4 days: TSAG3 gel vehicle minus 1% w/w Carbopol, 30 mg/g added, 20-23° C.
Description: In order to assess the compatibility with the modified TSAG3 gel formulation, several analogs were saturated in the gel components at room temperature (20-23° C.). The method used was as follows: Each analog at the equivalent of 30 mg/g was added to 500 microliters of the gel vehicle (minus the 1% w/w Carbopol as this made the gel too viscous) and allowed to equilibrate using a gently rotating, rotisserie sample holder that was allowed to come to equilibrium over 4 days. The samples were visually observed, filtered and diluted for analysis via HPLC in a concentrations range predetermined to be in a linear range for analyte detection. It is believed that Carbopol makes little difference to the equilibrium solubility at the 1% w/w level but may possibly prevent precipitation of super−saturated solutions of drug initially over 24-48 hours which is a further reason for taking it out to better assess the drug solubility in the remainder of the formulation.

[6] = test system: HSC-1 human squamous carcinoma cells; experiment: Cytotoxicity in human squamous carcinoma cells (CellTiter-Glo); type: cell-based; conditions: HSC-1, 72 h, 1% FBS, representative experiment, read-out: EC50 (cell viability)
Description: The human skin squamous carcinoma line (HSC) (Japanese Collection of Research Bioresources Cell Bank (JCRB)) was cultured in Dulbecco's minimal essential media (DMEM) containing 20% fetal bovine serum (FBS), (Thermofisher, Waltham, MA). Cells were plated at a density of 5,000 cells per well into a 96-well plate and allowed to attach for 24 h in a 37° C. humidified incubator with a 5% CO2 atmosphere. Media was replaced with that containing test agents or vehicle (0.1% dimethylsulphoxide) in 1% FBS and cells incubated for a further 72 h. Cell viability was assessed using CellTiter-Glo® (Promega). Non-linear regression analysis was performed using GraphPad PRISM®.

B16F10 cells = experiment: Melanin production in B16F10 melanoma cells; type: cell-based, mouse; conditions: 10 nM, 48 h
Description: B16F10 cells were plated at 150,000 cells per well into a 6-well plate and allowed to attach for 24 h in a 37° C. humidified incubator with a 5% CO2 atmosphere. Media was replaced with that containing test agents or vehicle (0.1% DMSO) and cells incubated for a further 48 h. Wells were washed once with PBS and cells removed by trypsinization and transferred to eppendorf tubes. Tubes were centrifuged at 1000 g for 10 minutes and the cell pellet resuspended in 0.5 mls PBS. Since compound A and analogs caused a reduction in cell viability the relative cell number per well was determined by taking an aliquot of the cell suspension in PBS and using CellTiter Glo® to determine the relative number of viable cells (Figure XX5). The PBS/cell suspension was centrifuged at 1000 g for 10 mins and the cell pellet resuspended in 1N NaOH/10% DMSO (v/v) and the tubes heated in a dry heating block at 80° C. with occasional vortexing to mix. In parallel a standard curve of melanin was prepared in 1N NaOH/10% DMSO using Sepia melanin (Sigma, St. Louis, MO) and standards also heated at 80° C. for 1 h. Samples and standards were centrifuged at 3000 g for 5 minutes and aliquots of the supernatant transferred to a 96-well plate for determination of melanin using Abs 475 nm. Melanin cellular content was interpolated from a standard curve and corrected based on the relative cell number in the sample.

SMILES	IC50 [3] [nM]	Supernatant concentration Mean (N = 2-3) mg/g at RT after 4 days equilibration [5] [mg/g]	Visual observation of sample after 4 days [5]	solubility as % of Compound A solubility ([5]; TSAG3 gel vehicle minus Carbopol)	EC50 at 48 h [1] [nM]	effect of oleic acid on cytotoxicity [2]	cell viability compared to vehicle treated cells [4]	reduction of cell viability ([2]; B16F10, 48 h, up to 100 nM)	EC50 [6] [nM]	melanin content (B16F10 cells)
O=C(COc1ccc(CO)cc1)N1CC[C@H](Oc2ccccc2)C1 [Compound B]		28.46	Clear solution				No loss in cell viability			
O=C(COc1ccc(CO)cc1)N1CC[C@H](Oc2cccc(C(F)(F)F)c2)C1 [Compound D]		28.35	Clear solution				No loss in cell viability			

More lines, main results first:

IC50 [3] [nM]	Supernatant concentration Mean (N = 2-3) mg/g at RT after 4 days equilibration [5] [mg/g]	Visual observation of sample after 4 days [5]	solubility as % of Compound A solubility ([5]; TSAG3 gel vehicle minus Carbopol)	SMILES	EC50 at 48 h [1] [nM]	effect of oleic acid on cytotoxicity [2]	cell viability compared to vehicle treated cells [4]	reduction of cell viability ([2]; B16F10, 48 h, up to 100 nM)	EC50 [6] [nM]	melanin content (B16F10 cells)
56	27.89	Clear solution		Cc1ccccc1O[C@H]1CCN(C(=O)COc2ccc(CO)cc2)C1 [Compound H]	46	prevented the cytotoxic effect	No loss in cell viability			
	23.18	Visible precipitate	about 77%	O=C(COc1ccc(CO)cc1)N1CC[C@H](Oc2ccc(C(F)(F)F)cc2)C1 [Compound E]			No loss in cell viability	did not reduce the viability		
24.2	28.78	Clear solution		O=C(COc1ccc(CO)cc1)N1CC[C@H](Oc2ccccc2OC(F)(F)F)C1 [Compound G]	4.3	prevented the cytotoxic effect	No loss in cell viability		9.2	increase in melanin
